Data reported in ChEMBL document CHEMBL1201862, “PubChem BioAssay data set” (2004).
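Grown in 96-well plates, cells were treated for 48 hours with each compound at five concentrations. Insufficient inhibition: endpoint recorded as highest concentration tested. GI50 marks 50% less growth.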 Activity calls are given as the source filed them. Rule as the data show it: active = GI50 up to about 1.1 µM and inactive = higher.

How the values were obtained:
Test in all cases: NCI anticancer screen, dose series, 48 h
OVCAR-8 = test system: OVCAR-8
BT-549 = test system: BT-549
NCI-H460 = test system: NCI-H460
ACHN = test system: ACHN
IGROV-1 = test system: IGROV-1
A498 = test system: A498
NCI-H226 = test system: NCI-H226
LOX IMVI = test system: LOX IMVI
M14 = test system: M14
Hs-578T = test system: Hs-578T
CCRF-CEM = test system: CCRF-CEM
SK-MEL-5 = test system: SK-MEL-5
K562 = test system: K562
SF-539 = test system: SF-539
KM12 = test system: KM12
MOLT-4 = test system: MOLT-4
MCF7 = test system: MCF7
SNB-75 = test system: SNB-75
NCI/ADR-RES = test system: NCI/ADR-RES
HOP-62 = test system: HOP-62
UO-31 = test system: UO-31
TK-10 = test system: TK-10
PC-3 = test system: PC-3
MDA-N = test system: MDA-N
SW-620 = test system: SW-620
RXF 393 = test system: RXF 393
SK-MEL-2 = test system: SK-MEL-2
NCI-H23 = test system: NCI-H23
HT-29 = test system: HT-29
OVCAR-4 = test system: OVCAR-4
NCI-H522 = test system: NCI-H522
UACC-257 = test system: UACC-257
MDA-MB-435 = test system: MDA-MB-435
A549 = test system: A549
DU-145 = test system: DU-145
HCT-116 = test system: HCT-116
OVCAR-3 = test system: OVCAR-3
SN12C = test system: SN12C
CAKI-1 = test system: CAKI-1
SK-MEL-28 = test system: SK-MEL-28
SF-268 = test system: SF-268
OVCAR-5 = test system: OVCAR-5
COLO 205 = test system: COLO 205
HCC 2998 = test system: HCC 2998
HCT-15 = test system: HCT-15
U-251 = test system: U-251
T47D = test system: T47D
SNB-19 = test system: SNB-19
MDA-MB-231 = test system: MDA-MB-231
RPMI-8226 = test system: RPMI-8226
UACC-62 = test system: UACC-62
SK-OV-3 = test system: SK-OV-3
HOP-92 = test system: HOP-92
786-0 = test system: 786-0
HL-60 = test system: HL-60
SF-295 = test system: SF-295
EKVX = test system: EKVX
Malme-3M = test system: Malme-3M
SR = test system: SR

CC(=O)/C(=C/NC(=S)c1cccnc1)C(=O)Nc1ccccc1C
GI50 (OVCAR-8): 52.6 µM (inactive) | GI50 (BT-549): > 100 µM (inactive) | GI50 (NCI-H460): > 100 µM (inactive) | GI50 (ACHN): > 100 µM (inactive) | GI50 (IGROV-1): > 100 µM (inactive) | GI50 (A498): > 100 µM (inactive) | GI50 (NCI-H226): > 100 µM (inactive) | GI50 (LOX IMVI): > 100 µM (inactive) | GI50 (M14): > 100 µM (inactive) | GI50 (Hs-578T): > 100 µM (inactive) | GI50 (CCRF-CEM): > 100 µM (inactive) | GI50 (SK-MEL-5): > 100 µM (inactive) | GI50 (K562): > 100 µM (inactive) | GI50 (SF-539): 30.9 µM (inactive) | GI50 (KM12): > 100 µM (inactive) | GI50 (MOLT-4): > 100 µM (inactive) | GI50 (MCF7): > 100 µM (inactive) | GI50 (SNB-75): > 100 µM (inactive) | GI50 (NCI/ADR-RES): 97.5 µM (inactive) | GI50 (HOP-62): > 100 µM (inactive) | GI50 (UO-31): > 100 µM (inactive) | GI50 (TK-10): > 100 µM (inactive) | GI50 (PC-3): 68.9 µM (inactive) | GI50 (MDA-N): > 100 µM (inactive) | GI50 (SW-620): > 100 µM (inactive) | GI50 (RXF 393): > 100 µM (inactive) | GI50 (SK-MEL-2): > 100 µM (inactive) | GI50 (NCI-H23): > 100 µM (inactive) | GI50 (HT-29): > 100 µM (inactive) | GI50 (OVCAR-4): > 100 µM (inactive) | GI50 (NCI-H522): 96.6 µM (inactive) | GI50 (UACC-257): > 100 µM (inactive) | GI50 (MDA-MB-435): > 100 µM (inactive) | GI50 (A549): > 100 µM (inactive) | GI50 (DU-145): > 100 µM (inactive) | GI50 (HCT-116): 83 µM (inactive) | GI50 (OVCAR-3): 82.6 µM (inactive) | GI50 (SN12C): > 100 µM (inactive) | GI50 (CAKI-1): 41.3 µM (inactive) | GI50 (SK-MEL-28): > 100 µM (inactive) | GI50 (SF-268): > 100 µM (inactive) | GI50 (OVCAR-5): > 100 µM (inactive) | GI50 (COLO 205): > 100 µM (inactive) | GI50 (HCC 2998): > 100 µM (inactive) | GI50 (HCT-15): > 100 µM | GI50 (U-251): 71.9 µM (inactive) | GI50 (T47D): > 100 µM (inactive) | GI50 (SNB-19): > 100 µM (inactive) | GI50 (MDA-MB-231): > 100 µM (inactive) | GI50 (RPMI-8226): > 100 µM (inactive) | GI50 (UACC-62): > 100 µM (inactive) | GI50 (SK-OV-3): > 100 µM (inactive) | GI50 (HOP-92): > 100 µM (inactive) | GI50 (786-0): > 100 µM (inactive) | GI50 (HL-60): 2.37 µM (inactive) | GI50 (SF-295): > 100 µM (inactive) | GI50 (EKVX): > 100 µM (inactive)

COc1cc(C2C3=C(COC3=O)Oc3cc4c(cc32)OCO4)cc(OC)c1O (stereo not given)
GI50 (OVCAR-8): < 0.0152 µM (active) | GI50 (BT-549): 39.8 µM (inactive) | GI50 (Malme-3M): < 0.01 µM (active) | GI50 (NCI-H460): < 0.0139 µM (active) | GI50 (ACHN): < 0.0119 µM (active) | GI50 (IGROV-1): < 0.0121 µM (active) | GI50 (NCI-H226): < 0.0118 µM (active) | GI50 (LOX IMVI): < 0.0112 µM (active) | GI50 (M14): < 0.0112 µM (active) | GI50 (Hs-578T): 0.0119 µM (active) | GI50 (CCRF-CEM): 0.0134 µM (active) | GI50 (SK-MEL-5): < 0.01 µM (active) | GI50 (K562): < 0.01 µM (active) | GI50 (SF-539): < 0.01 µM (active) | GI50 (KM12): < 0.01 µM (active) | GI50 (MOLT-4): 0.0175 µM (active) | GI50 (MCF7): < 0.01 µM (active) | GI50 (SNB-75): < 0.01 µM (active) | GI50 (NCI/ADR-RES): < 0.01 µM (active) | GI50 (HOP-62): < 0.0135 µM (active) | GI50 (UO-31): 0.0592 µM (active) | GI50 (TK-10): 0.589 µM (active) | GI50 (PC-3): < 0.01 µM (active) | GI50 (MDA-N): < 0.01 µM (active) | GI50 (SW-620): 0.0124 µM (active) | GI50 (RXF 393): < 0.01 µM (active) | GI50 (SK-MEL-2): 0.0101 µM (active) | GI50 (NCI-H23): 0.465 µM (active) | GI50 (HT-29): < 0.0147 µM (active) | GI50 (SR): < 0.01 µM (active) | GI50 (OVCAR-4): 8.24 µM (inactive) | GI50 (NCI-H522): < 0.01 µM (active) | GI50 (MDA-MB-435): < 0.01 µM (active) | GI50 (A549): < 0.0141 µM (active) | GI50 (DU-145): 0.0157 µM (active) | GI50 (HCT-116): 0.0103 µM (active) | GI50 (OVCAR-3): 0.0127 µM (active) | GI50 (SN12C): 0.0364 µM (active) | GI50 (CAKI-1): < 0.01 µM (active) | GI50 (SK-MEL-28): < 0.01 µM (active) | GI50 (SF-268): 0.226 µM (active) | GI50 (OVCAR-5): 0.0236 µM (active) | GI50 (COLO 205): < 0.0133 µM (active) | GI50 (HCC 2998): < 0.0209 µM (active) | GI50 (HCT-15): 0.0126 µM | GI50 (U-251): < 0.0134 µM (active) | GI50 (T47D): 0.0157 µM (active) | GI50 (SNB-19): < 0.0123 µM (active) | GI50 (MDA-MB-231): < 0.0246 µM (active) | GI50 (RPMI-8226): < 0.0232 µM (active) | GI50 (UACC-62): < 0.01 µM (active) | GI50 (SK-OV-3): < 0.012 µM (active) | GI50 (786-0): < 0.0152 µM (active) | GI50 (HL-60): < 0.01 µM (active) | GI50 (SF-295): < 0.01 µM (active) | GI50 (EKVX): 0.0207 µM (active)

CC(=O)Oc1ccc2c(c1OC(C)=O)CCC1C2=CC[C@]2(C)C(=O)CCC12 (stereo not given in full)
GI50 (OVCAR-8): 14.3 µM (inactive) | GI50 (BT-549): 15.6 µM (inactive) | GI50 (Malme-3M): 13.8 µM (inactive) | GI50 (NCI-H460): 16.4 µM (inactive) | GI50 (ACHN): 11.8 µM (inactive) | GI50 (IGROV-1): 4.73 µM (inactive) | GI50 (M14): 12.5 µM (inactive) | GI50 (Hs-578T): 19.6 µM (inactive) | GI50 (CCRF-CEM): 3.37 µM (inactive) | GI50 (SK-MEL-5): < 0.01 µM (active) | GI50 (K562): 14 µM (inactive) | GI50 (SF-539): 14.2 µM (inactive) | GI50 (KM12): 16 µM (inactive) | GI50 (MOLT-4): 3.3 µM (inactive) | GI50 (MCF7): 14.2 µM (inactive) | GI50 (NCI/ADR-RES): 27.6 µM (inactive) | GI50 (HOP-62): 19.7 µM (inactive) | GI50 (UO-31): 9.57 µM (inactive) | GI50 (TK-10): 13.9 µM (inactive) | GI50 (PC-3): 3.24 µM (inactive) | GI50 (MDA-N): 14.2 µM (inactive) | GI50 (SW-620): 3.18 µM (inactive) | GI50 (SK-MEL-2): 15.1 µM (inactive) | GI50 (NCI-H23): 21.4 µM (inactive) | GI50 (HT-29): 17.6 µM (inactive) | GI50 (SR): 6.61 µM (inactive) | GI50 (OVCAR-4): 3.36 µM (inactive) | GI50 (NCI-H522): 1.82 µM (inactive) | GI50 (UACC-257): 25.6 µM (inactive) | GI50 (MDA-MB-435): 4.45 µM (inactive) | GI50 (A549): 16 µM (inactive) | GI50 (DU-145): 15.7 µM (inactive) | GI50 (HCT-116): 4.92 µM (inactive) | GI50 (OVCAR-3): 2.44 µM (inactive) | GI50 (SN12C): 14.1 µM (inactive) | GI50 (CAKI-1): 6.07 µM (inactive) | GI50 (SK-MEL-28): 9.12 µM (inactive) | GI50 (SF-268): 12.1 µM (inactive) | GI50 (OVCAR-5): 15.1 µM (inactive) | GI50 (COLO 205): 14.5 µM (inactive) | GI50 (HCT-15): 10.6 µM | GI50 (T47D): 9.46 µM (inactive) | GI50 (SNB-19): 12.5 µM (inactive) | GI50 (MDA-MB-231): 14.3 µM (inactive) | GI50 (RPMI-8226): 1 µM (active) | GI50 (UACC-62): 12.3 µM (inactive) | GI50 (SK-OV-3): 20.7 µM (inactive) | GI50 (HOP-92): 5.15 µM (inactive) | GI50 (786-0): 2.47 µM (inactive) | GI50 (HL-60): 6.89 µM (inactive) | GI50 (SF-295): 12.9 µM (inactive) | GI50 (EKVX): 10.5 µM (inactive)
